From US20220251074A1, “HERBICIDAL AMIDES” (BASF SE, priority 2019, published 2022)

Assays:
SETVI = experiment: greenhouse post-emergence herbicidal test; assay type: in vivo, Setaria viridis; settings: application rate 500 g/ha, scale from 0 to 100; for damages, unwanted plants SETVI: post-emergence application, greenhouse; for herbicidal activity against SETVI: post-emergence method
Text: (§1) The culture containers used were plastic flowerpots containing loamy sand with approximately 3.0% of humus as the substrate. The seeds of the test plants were sown separately for each species.
(§2) For the post-emergence treatment, the test plants were first grown to a height of 3 to 15 cm, depending on the plant habit, and only then treated with the active ingredients which had been suspended or emulsified in water. For this purpose, the test plants were either sown directly and grown in the same containers, or they were first grown separately as seedlings and transplanted into the test containers a few days prior to treatment.
(§3) Depending on the species, the plants were kept at 10-25° C. or 20-35° C., respectively. The test period extended over 2 to 4 weeks. During this time, the plants were tended, and their response to the individual treatments was evaluated.
(§4) Evaluation was carried out using a scale from 0 to 100. 100 means no emergence of the plants, or complete destruction of at least the aerial moieties, and 0 means no damage, or normal course of growth. A good herbicidal activity is given at values of at least 80 and a very good herbicidal activity is given at values of at least 90.
(§5) The plants used in the greenhouse experiments were of the following species: […]

ALOMY = experiment: greenhouse post-emergence herbicidal test; assay type: in vivo, Alopercurus myosuroides; settings: post-emergence application, application rate 500 g/ha, scale from 0 to 100
Text: as §1, §2, §3, §4, §5

AVEFA = experiment: greenhouse post-emergence herbicidal test; assay type: in vivo, Avena fatua; settings: application rate 500 g/ha, scale from 0 to 100; for damages, unwanted plants AVEFA: post-emergence application, greenhouse
Text: as §1, §2, §3, §4, §5

CHEAL = experiment: greenhouse post-emergence herbicidal test; assay type: in vivo, Chenopodium album; settings: post-emergence application, application rate 8 g/ha, scale from 0 to 100
Text: as §1, §2, §3, §4, §5

RAPRA = experiment: greenhouse post-emergence herbicidal test; assay type: in vivo, Raphanus raphanistrum; settings: post-emergence application, application rate 8 g/ha, scale from 0 to 100
Text: as §1, §2, §3, §4, §5

SEBEX = experiment: greenhouse post-emergence herbicidal test; assay type: in vivo, Sesbania exaltata; settings: post-emergence application, application rate 8 g/ha, scale from 0 to 100
Text: as §1, §2, §3, §4, §5

ABUTH = experiment: greenhouse post-emergence herbicidal test; assay type: in vivo, Abutilon theophrasti; settings: post-emergence method, application rate 500 g/ha, scale from 0 to 100
Text: as §1, §2, §3, §4, §5

ECHCG = experiment: greenhouse post-emergence herbicidal test; assay type: in vivo, Echinocloa crus-galli; settings: post-emergence method, application rate 500 g/ha, scale from 0 to 100
Text: as §1, §2, §3, §4, §5

AMARE [1] = experiment: greenhouse post-emergence herbicidal test; assay type: in vivo, Amaranthus retroflexus; settings: post-emergence method, application rate 500 g/ha, scale from 0 to 100
Text: as §1, §2, §3, §4, §5

AMARE [2] = experiment: greenhouse pre-emergence herbicidal test; assay type: in vivo, Amaranthus retroflexus; settings: pre-emergence method, application rate 500 g/ha, scale from 0 to 100
Text: as §1
(§6) For the pre-emergence treatment, the active ingredients, which had been suspended or emulsified in water, were applied directly after sowing by means of finely distributing nozzles. The containers were irrigated gently to promote germination and growth and subsequently covered with transparent plastic hoods until the plants had rooted. This cover caused uniform germination of the test plants, unless this had been impaired by the active ingredients.
as §3, §4, §5

SETFA = experiment: greenhouse pre-emergence herbicidal test; assay type: in vivo, Setaria faberi; settings: pre-emergence method, application rate 500 g/ha, scale from 0 to 100
Text: as §1, §6, §3, §4, §5

C/C(=C\C(=O)NCCO)C[C@@H]1OC[C@H](C[C@@H]2O[C@H]2[C@@H](C)[C@H](C)O)[C@@H](O)[C@H]1O [cmpd 77 (WO 93/19599), reference compound]
damages, unwanted plants SETVI (SETVI): 85
damages, unwanted plants ALOMY (ALOMY): 70
damages, unwanted plants AVEFA (AVEFA): 50
damages, unwanted plants CHEAL (CHEAL): 75
damages, unwanted plants RAPRA (RAPRA): 85
damages, unwanted plants SEBEX (SEBEX): 65

C#CCNC(=O)/C=C(\C)C[C@@H]1OC[C@H](C[C@@H]2O[C@H]2[C@@H](C)[C@H](C)O)[C@@H](O)[C@H]1O [compound 26, (E)-4-[(2S,3R,4R,5S)-3,4-dihydroxy-5-[[(2S,3S)-3-[(1S,2S)-2-hydroxy-1-methyl-propyl]oxiran-2-yl]methyl]tetrahydropyran-2-yl]-3-methyl-N-prop-2-ynyl-but-2-enamide]
damages, unwanted plants SETVI (SETVI): 100
damages, unwanted plants ALOMY (ALOMY): 95
damages, unwanted plants AVEFA (AVEFA): 98
damages, unwanted plants CHEAL (CHEAL): 100
damages, unwanted plants RAPRA (RAPRA): 100
damages, unwanted plants SEBEX (SEBEX): 100

C/C(=C\C(=O)NCCF)C[C@@H]1OC[C@H](C[C@@H]2O[C@H]2[C@@H](C)[C@H](C)O)[C@@H](O)[C@H]1O [compound 1]
damages, unwanted plants SETVI (SETVI): 100
damages, unwanted plants ALOMY (ALOMY): 100
damages, unwanted plants CHEAL (CHEAL): 100
damages, unwanted plants RAPRA (RAPRA): 100

CC(=CC(=O)N1CCSC1=O)CC1OCC(CC2OC2C(C)C(C)O)C2OC(C)(C)OC12 (stereo not shown) [compound 39]
herbicidal activity against SETVI (SETVI): very good herbicidal activity (a very good herbicidal activity is given at values of at least 90)
herbicidal activity against ABUTH (ABUTH): very good herbicidal activity (a very good herbicidal activity is given at values of at least 90)

CCOC1OC2C(CC3OC3C(C)C(C)O)COC(CC(C)=CC(=O)NCC(F)(F)F)C2O1 (mixture of isomers) [compound 20]
herbicidal activity against ECHCG (ECHCG): very good herbicidal activity (a very good herbicidal activity is given at values of at least 90)
herbicidal activity against ABUTH (ABUTH): very good herbicidal activity (a very good herbicidal activity is given at values of at least 90)
herbicidal activity against AMARE (AMARE [1]): very good herbicidal activity (a very good herbicidal activity is given at values of at least 90)

C#CCNC(=O)C=C(C)CC1OCC(CC2OC2C(C)C(C)O)C2OC(OCC)OC12 (stereo not shown) [compound 33]
herbicidal activity against AMARE (AMARE [2]): good herbicidal activity (A good herbicidal activity is given at values of at least 80)

CC(=O)[C@H](C)[C@@H]1O[C@H]1C[C@H]1CO[C@@H](C/C(C)=C/C(=O)NCC(F)(F)F)[C@H](O)[C@@H]1O [compound 43]
herbicidal activity against SETVI (SETVI): very good herbicidal activity (a very good herbicidal activity is given at values of at least 90)
herbicidal activity against ABUTH (ABUTH): very good herbicidal activity (a very good herbicidal activity is given at values of at least 90)
herbicidal activity against AVEFA (AVEFA; post-emergence method): very good herbicidal activity (a very good herbicidal activity is given at values of at least 90)

CC(=CC(=O)NCC(F)(F)C(F)(F)C(F)(F)F)CC1OCC(CC2OC2C(C)C(C)O)C2OC(C)(C)OC12 (stereo not shown) [compound 19]
herbicidal activity against AMARE (AMARE [1]): very good herbicidal activity (a very good herbicidal activity is given at values of at least 90)

C/C(=C\C(=O)N1CCSC1=O)C[C@@H]1OC[C@H](C[C@@H]2O[C@H]2[C@@H](C)[C@H](C)O)[C@@H](O)[C@H]1O [compound 37]
herbicidal activity against ECHCG (ECHCG): good herbicidal activity (A good herbicidal activity is given at values of at least 80)
herbicidal activity against SETVI (SETVI): very good herbicidal activity (a very good herbicidal activity is given at values of at least 90)
herbicidal activity against ABUTH (ABUTH): very good herbicidal activity (a very good herbicidal activity is given at values of at least 90)
herbicidal activity against AMARE (AMARE [1]): good herbicidal activity (A good herbicidal activity is given at values of at least 80)

C/C(=C\C(=O)NCC(F)(F)C(F)(F)C(F)(F)F)C[C@@H]1OC[C@H](C[C@@H]2O[C@H]2[C@@H](C)[C@H](C)O)[C@@H](O)[C@H]1O [compound 9]
herbicidal activity against ECHCG (ECHCG): good herbicidal activity (A good herbicidal activity is given at values of at least 80)
herbicidal activity against SETVI (SETVI): very good herbicidal activity (a very good herbicidal activity is given at values of at least 90)
herbicidal activity against AMARE (AMARE [1]): very good herbicidal activity (a very good herbicidal activity is given at values of at least 90)

C/C(=C\C(=O)NCC#CC(C)(C)C)C[C@@H]1OC[C@H](C[C@@H]2O[C@H]2[C@@H](C)[C@H](C)O)[C@@H](O)[C@H]1O [compound 29]
herbicidal activity against SETFA (SETFA): good herbicidal activity (A good herbicidal activity is given at values of at least 80)
